Earlier results as cited in paper PMC8803738, “Impact of the mouse model and molar amount of injected ligand on the tissue distribution profile of PSMA radioligands” (European Journal of Nuclear Medicine and Molecular Imaging, 2021).
Read-outs that look alike come from different tables or passages of the source.

System: PC-3 PIP/flu tumor-bearing mice
Conditions: PC-3 PIP model, 1.0 nmol, ref Deberle et al. [21], cited from earlier work

CC(C)Cc1ccc(C(C)C(=O)NC(CCN)C(=O)NCCCCC(NC(=O)CN2CCN(CC(=O)O)CCN(CC(=O)O)CCN(CC(=O)O)CC2)C(=O)NCC2CCC(C(=O)NC(Cc3ccc4ccccc4c3)C(=O)NCCCCC(NC(=O)NC(CCC(=O)O)C(=O)O)C(=O)O)CC2)cc1 (stereo not drawn) [[^177Lu]Lu-Ibu-DAB-PSMA, metal not drawn]
Tissue distribution, Blood (4 h p.i.): 3.7 ± 0.5 % IA/g | Tissue distribution, Bone (4 h p.i.): 0.62 ± 0.08 % IA/g | Tissue distribution, Heart (4 h p.i.): 1.3 ± 0.1 % IA/g | Tissue distribution, Intestines (4 h p.i.): 0.71 ± 0.05 % IA/g | Tissue distribution, Kidneys (4 h p.i.): 19 ± 2 % IA/g | Tissue distribution, Liver (4 h p.i.): 1.5 ± 0.1 % IA/g | Tissue distribution, Lung (4 h p.i.): 2.4 ± 0.3 % IA/g | Tissue distribution, Muscle (4 h p.i.): 0.54 ± 0.09 % IA/g | Tissue distribution, PC-3 PIP tumor (4 h p.i.): 66 ± 11 % IA/g | Tissue distribution, PC-3 flu tumor (4 h p.i.): 1.2 ± 0.3 % IA/g | Tissue distribution, Salivary glands (4 h p.i.): 0.86 ± 0.38 % IA/g | Tissue distribution, Spleen (4 h p.i.): 1.1 ± 0.1 % IA/g | Tissue distribution, Stomach (4 h p.i.): 0.62 ± 0.12 % IA/g | Tumor-to-blood ratio (4 h p.i.): 18 ± 3 | Tumor-to-kidney ratio (4 h p.i.): 3.0 ± 0.5 | Tumor-to-liver ratio (4 h p.i.): 45 ± 8 | Tissue distribution, Blood (24 h p.i.): 0.16 ± 0.02 % IA/g | Tissue distribution, Bone (24 h p.i.): < 0.10 % IA/g | Tissue distribution, Heart (24 h p.i.): 0.10 ± 0.01 % IA/g | Tissue distribution, Intestines (24 h p.i.): 0.11 ± 0.03 % IA/g | Tissue distribution, Kidneys (24 h p.i.): 6.0 ± 0.7 % IA/g | Tissue distribution, Liver (24 h p.i.): 0.56 ± 0.10 % IA/g | Tissue distribution, Lung (24 h p.i.): 0.21 ± 0.03 % IA/g | Tissue distribution, Muscle (24 h p.i.): 0.05 ± 0.01 % IA/g | Tissue distribution, PC-3 PIP tumor (24 h p.i.): 52 ± 3 % IA/g | Tissue distribution, PC-3 flu tumor (24 h p.i.): 0.17 ± 0.01 % IA/g | Tissue distribution, Salivary glands (24 h p.i.): 0.56 ± 0.37 % IA/g | Tissue distribution, Spleen (24 h p.i.): 0.32 ± 0.03 % IA/g | Tissue distribution, Stomach (24 h p.i.): 0.18 ± 0.13 % IA/g | Tumor-to-blood ratio (24 h p.i.): 337 ± 40 | Tumor-to-kidney ratio (24 h p.i.): 8.9 ± 1.0 | Tumor-to-liver ratio (24 h p.i.): 98 ± 21 | Tissue distribution, Blood (48 h p.i.): 0.10 ± 0.04 % IA/g | Tissue distribution, Bone (48 h p.i.): < 0.10 % IA/g | Tissue distribution, Heart (48 h p.i.): < 0.10 % IA/g | Tissue distribution, Intestines (48 h p.i.): < 0.10 % IA/g | Tissue distribution, Kidneys (48 h p.i.): 4.1 ± 0.8 % IA/g | Tissue distribution, Liver (48 h p.i.): 0.49 ± 0.08 % IA/g | Tissue distribution, Lung (48 h p.i.): 0.14 ± 0.04 % IA/g | Tissue distribution, Muscle (48 h p.i.): < 0.10 % IA/g | Tissue distribution, PC-3 PIP tumor (48 h p.i.): 36 ± 10 % IA/g | Tissue distribution, PC-3 flu tumor (48 h p.i.): 0.15 ± 0.04 % IA/g | Tissue distribution, Salivary glands (48 h p.i.): < 0.10 % IA/g | Tissue distribution, Spleen (48 h p.i.): 0.26 ± 0.08 % IA/g | Tissue distribution, Stomach (48 h p.i.): < 0.10 % IA/g | Tumor-to-blood ratio (48 h p.i.): 364 ± 67 | Tumor-to-kidney ratio (48 h p.i.): 8.7 ± 1.8 | Tumor-to-liver ratio (48 h p.i.): 72 ± 11
